Legend:
[1] = Solubility at room temperature; type: physicochemical; details: for Solubility, Acetone: in words
Experimental: Then, solubility at room temperature of the resulting compound is measured.

[2] = background statement, in words; cited from earlier work

Row | Substance | Solubility, Acetone [1] | Solubility, Methanol [1] [%] | Solubility, Water [1] [%] | Solubility, DMF [1] [%] | Solubility, Dilute aqueous alkaline solution [1] [%] | water-solubility [2] | solubility in an organic solvent [2]
1 | Tetrasulfonic acid copper phthalocyanine [C.I. Acid Blue-249] |  |  |  |  |  | insufficient | 
2 | C.I. Solvent Blue-70 |  |  |  |  |  |  | soluble in an organic solvent
3 | tetrakis(sulfobenzamide) phthalocyanine [Example 2] | insoluble | > 5 | > 10 |  |  |  | 

More lines, main results first:

Row | Solubility, Acetone [1] | Solubility, Methanol [1] [%] | Solubility, Water [1] [%] | Solubility, DMF [1] [%] | Solubility, Dilute aqueous alkaline solution [1] [%] | Substance | water-solubility [2] | solubility in an organic solvent [2]
4 | insoluble | > 5 | > 10 |  |  | tetrakis(sulfobenzamide) copper phthalocyanine [Example 1] |  | 
5 | insoluble | < 0.1 |  | > 2.0 | < 1.5 | tetrakis(sulfobenzamide) copper naphthalocyanine [Example 5] |  | 
6 | insoluble | < 0.1 |  | > 2.0 | < 1.5 | tetrakis(sulfobenzamide) nickel naphthalocyanine [Example 4] |  | 

Reference: patent US5739319A, “Phthalocyanine or naphthalocyanine derivative” (Orient Chemical Industries, Ltd., priority 1995, dated 1998)
